Experiments:
[1] = Sensory panel evaluation of tomato soups with reduced salt (Example 9)
Description: 10 gram of each composition was mixed with 100 ml hot water to obtain tomato soups. The different soups were tasted and evaluated by a sensory panel.

[2] = Professional panel tasting of standard chicken soup (Example 8); details: 7 ppm, versus soup without
Description: A standard chicken soup was prepared. The quantity was split in two and to one half 7 ppm of N-gluconyl ethanolamine, as prepared in example 2, was added. The soups were tasted by a professional panel.

[3] = Professional panel tasting of still lemon beverages (Example 7); details: sample C: tap water with sucrose (6.2 brix)+lemon flavour+30 ppm; B (6.2 brix, without): empty, less sweet; A (7 brix): sweet
Description: Three still beverages were prepared: • A: Tap water with sucrose (7 brix) and 1.5 g/l of citric acid+lemon flavour • B: Tap water with sucrose (6.2 brix) and 1.5 g/l of citric acid+lemon flavour • C: Tap water with sucrose (6.2 brix)+lemon flavour+N-gluconyl ethanolamine 30 ppm (as prepared in Example 2)
The beverages were tasted by a professional panel.

[4] = Professional panel tasting of ketchup (Example 14); details: ketchup pH 3.5, 20 ppm; base: strongly acidic, acetic acid-like, flat tomato profile
Description: Ketchup was prepared using 506 g of water, 150 g of tomato puree (28-30 Brix), 30 g of modified starch (Colflo 67 ex National Starch), 22 g of salt, 2 g of stabilizer Deltagel CE 1364) and 115 g of vinegar (12% acetic acid in water), by first mixing the dry ingredients, subsequently adding water and stirring until a homogeneous paste was obtained. Tomato puree and vinegar were than added and the mixture was stirred again and heated to a temperature of 95° C. for 1 minute. The mixture was filled off hot and allowed to cool down.
The pH was determined to be 3.5.
Part of the ketchup was mixed with 20 ppm N-gluconyl ethanolamine (as prepared in example 2).
The two ketchups were tasted and compared by a professional panel.
The ketchup base was described as strongly acidic, acetic acid-like, with a flat tomato profile.

[5] = Professional panel tasting of instant vegetable soup of different fat content (Example 11)
Description: Four samples of standard instant vegetable soup were prepared:
1. Soup containing 2% fat
2. Soup containing 2% fat+7 ppm gluconyl ethanolamine (as prepared in example 2)
3. Soup containing 4% fat
4. Soup containing 4% fat+7 ppm gluconyl ethanolamine (as prepared in example 2)
5. Soup containing 6% fat
6. Soup containing 6% fat+7 ppm gluconyl ethanolamine (as prepared in example 2)
(§1) All samples were tasted by a professional panel. There was general agreement about the differences in taste between the samples.

[6] = Professional panel tasting of 3% fat strawberry yoghurt (Example 5); details: sample B: Yoghurt 3% fat+strawberry flavour+4% sugar+10 ppm; reference A without: tart, acidic
Description: Two yoghurt samples were prepared: • A: Yoghurt 3% fat+strawberry flavour+4% sugar • B: Yoghurt 3% fat+strawberry flavour+4% sugar+10 ppm N-gluconyl ethanolamine (as prepared in Example 2)
(§2) The yoghurts were tasted by a professional panel.

[7] = Professional panel tasting of strawberry ice cream, 8% vegetable fat (Example 6); details: sample B: Ice cream (8% vegetable fat)+strawberry flavour+10 ppm, reference A without: sweet, creamy aftertaste
Description: Two ice cream (8% vegetable fat) samples were prepared: • A: Ice cream+strawberry flavour • B: Ice cream+strawberry flavour+10 ppm N-gluconyl ethanolamine (as prepared in Example 2)
The ice creams were tasted by a professional panel. There was general agreement among the group on the taste descriptions: • A: sweet, strawberry, creamy aftertaste.

[8] = Professional panel tasting of sweet strawberry milk samples of different fat content (Example 10); details: for taste description versus same milk without the substance: 6% sucrose, strawberry flavour, 10 ppm
Description: Six sweet milk samples, containing 6% sucrose, flavoured with a strawberry flavour were prepared:
1. Zero fat containing milk drink
2. Zero fat containing milk drink+10 ppm gluconyl ethanolamine (as prepared in example 2)
4. 1.5% fat milk+10 ppm gluconyl ethanolamine (as prepared in example 2)
6. Full fat milk+10 ppm gluconyl ethanolamine (as prepared in example 2)
as §1

[9] = Professional panel evaluation of cigarettes with tobacco casings (Example 12); details: casing B (2 g per 100 g casing mixture, 1 g/kg tobacco) versus casing A without
Description: The following mixtures were used as casings to improve the tobacco taste and improvement of the body of the smoke:
dosage of this mixture is 1 g/kg tobacco
Cigarettes were prepared from both types of tobacco, which were evaluated by a professional panel.

[10] = Professional panel tasting of salted potato chips (Example 13); details: potato chips with salt (0.7%) and 100 ppm; reference chips: salty, slightly rancid, oily-greasy and cardboard-like
Source text: One sample of potato chips was seasoned with salt (0.7%).
Another sample of potato chips was seasoned with salt (0.7%) and flavoured with 100 ppm
N-gluconyl ethanolamine (as prepared in example 2).
The chips were tasted by a professional panel.
The reference chips were described as salty, slightly rancid, oily-greasy and cardboard-like.

[11] = Professional panel tasting of 0% fat strawberry yoghurt (Example 4)
Description: Four yoghurt samples were prepared: • A: Yoghurt 0% fat+strawberry flavour+sucralose (25%) 300 ppm • B: Yoghurt 0% fat+strawberry flavour+sucralose (25%) 300 ppm+10 ppm N-gluconyl ethanolamme (as prepared in Example 2) • C: Yoghurt 0% fat+strawberry flavour+4% sugar • D: Yoghurt 0% fat+strawberry flavour+4% sugar+10 ppm N-gluconyl ethanolamine (as prepared in Example 2)
as §2

[12] = Professional panel tasting of vinaigrette (Example 15); details: 30 ppm, original: strongly acidic, acetic acid-like, thin, peaky
Description: A vinaigrette was prepared using 815.8 g of water, 100 g of sunflower oil, 12 g of salt, 30 g of sugar, 45 g of vinegar (12% acetic acid), 4 g of xanthan gum and 0.2 g of turmeric powder by mixing all ingredients intensively to obtain a homogeneous emulsion.
To a part of the vinaigrette 30 ppm of N-gluconyl ethanolamine (as prepared in example 2) was added.
Both vinaigrettes were tasted by a professional panel.
The original vinaigrette was described as strongly acidic, acetic acid-like, thin, peaky.

## O=C(NCCOP(=O)(O)O)[C@H](O)[C@@H](O)[C@H](O)[C@H](O)CO [N-gluconyl ethanolamine phosphate]
[1]; product C (3.5 g salt, 3.5 g Example 3 product per 100 g) versus product A (control, 7 g salt)
  perceived saltiness: comparable to that of product A
[1]; product C: tomato soup powder, 50% reduced salt, 3.5 g of Example 3 product per 100 g, 10 g in 100 ml hot water, versus product B (maltodextrin instead)
  panel preference: clearly preferred over product B
[1]; product C: tomato soup, 50% reduced salt, 3.5 g Example 3 product per 100 g powder
  taste description: “more taste”, “more impact”, “more umami”, “more kokumi” and “salivating”

## O=C(NCCO)[C@H](O)[C@@H](O)[C@H](O)[C@H](O)CO [N-gluconyl ethanolamine]
[2]
  taste description: more tasteful, more complete, more body, more fatty
[3]
  taste description: fuller, more round and natural taste, more intense sweet taste than B
[4]
  taste description: mildly acidic, less acetic acid-like, exhibiting more sun-ripened tomato character, more fullness
[5]; sample 2 (2% fat+7 ppm) versus sample 3 (4% fat)
  taste comparison with higher-fat soup without the substance: quite similar and the main difference was that sample 2 and 4 tasted slightly more sweet
[5]; sample 2: vegetable soup 2% fat+7 ppm, versus sample 1
  taste description versus same soup without the substance: more fatty, more natural, more round and more sweet
[5]; sample 4 (4% fat+7 ppm) versus sample 5 (6% fat)
  taste comparison with higher-fat soup without the substance: quite similar and the main difference was that sample 2 and 4 tasted slightly more sweet
[5]; sample 4: vegetable soup 4% fat+7 ppm, versus sample 3
  taste description versus same soup without the substance: more fatty, more natural, more round and more sweet
[5]; sample 6: vegetable soup 6% fat+7 ppm, versus sample 5
  taste description versus same soup without the substance: more fatty, more natural, more round and more sweet
[6]
  taste description: much fuller, more fatty, more round and natural taste, more intense sweet
[7]
  taste description: fuller, more round and natural taste, enhanced sweetness and creaminess
[8]; sample 2 (zero fat+10 ppm) versus sample 3 (1.5% fat milk)
  taste comparison with higher-fat milk without the substance: quite similar and the main difference was that sample 2 and 4 were slightly more sweet
[8]; sample 2: zero fat milk drink, versus sample 1
  taste description versus same milk without the substance: fuller, more round natural taste, more creamy and more sweet
[8]; sample 4 (1.5% fat+10 ppm) versus sample 5 (full fat milk)
  taste comparison with higher-fat milk without the substance: quite similar and the main difference was that sample 2 and 4 were slightly more sweet
[8]; sample 4: 1.5% fat milk, versus sample 3
  taste description versus same milk without the substance: fuller, more round natural taste, more creamy and more sweet
[8]; sample 6: full fat milk, versus sample 5
  taste description versus same milk without the substance: fuller, more round natural taste, more creamy and more sweet
[9]
  smoke evaluation of cigarettes: significantly more “body” in the smoke and significantly more “expanding” tobacco smoke
[10]
  taste description: salty, exhibiting more fatty fullness, and masking of undesired notes of the reference chips
[11]; sample B: Yoghurt 0% fat+strawberry flavour+sucralose (25%) 300 ppm+10 ppm, reference A without: sweet, bitter, metallic, aftertaste
  taste description: fuller more round and natural taste, more sugar sweetness, significantly less bitter metallic aftertaste
[11]; sample D: Yoghurt 0% fat+strawberry flavour+4% sugar+10 ppm, reference C without: tart, acidic
  taste description: fuller more round and natural taste, more intense sweet
[12]
  taste description: acidic, more rounded, more full, more fat impression, more smooth
